{"source": "patent US9119769B2", "about": "“Method for transforming pharmaceutical crystal forms” (The Curators of the University of Missouri, priority 2012, dated 2015)", "key": {"[1]": {"experiment": "Gas-induced (pressurized CO2) phase transformation of crystal forms, followed by XRPD", "assay_type": "physicochemical", "text": "The invention teaches that simple pressurization of polymorphic forms of an organic solid, such as a pharmaceutical agent, can effect phase transitions among the forms with ease. More specifically, the inventive method comprises the step of subjecting an organic solid to a pressurized gas under low to moderate pressure at room temperature to a mildly elevated temperature for a period of time. The pressurized gas may be CO2, N2O, and CH4, and the pressure may start at 1 atm, whereas under slightly elevated pressure, the reaction temperature may be lowered, while the reaction time may be shortened.\nRefer to FIG. 3, which includes schematic illustrations of the phase transformations between different forms of Clarithromycin 1. […] As expected, desolvated form I can be transformed to form II with greater ease under analogous conditions. […] Different gases including H2, He, CH4, N2, O2, air, and N2O have been studied, among which N2O has similar transformation effect as CO2.\nRefer to FIG. 5, which compares the transformations under different gas pressures (350 psi vs. 100 psi) at different durations.\nThe invention has also studied Lansoprazole 2 transformations under CO2 but at higher pressure conditions."}, "[2]": {"conditions": "1:1 ethanol hydrate; cited from earlier work"}, "[3]": {"conditions": "cited from earlier work"}}}
{"smiles": "CC[C@H]1OC(=O)[C@H](C)[C@@H](O[C@H]2C[C@@](C)(OC)[C@@H](O)[C@H](C)O2)[C@H](C)[C@@H](O[C@@H]2O[C@H](C)C[C@H](N(C)C)[C@H]2O)[C@](C)(OC)C[C@@H](C)C(=O)[C@H](C)[C@@H](O)[C@]1(C)O", "note": "[Clarithromycin form 0, 6-O-methylerythro-mycin A]", "values": [{"measurement": "time of exposure for complete transformation directly to form II", "setting": "[1]; 23.8 atm (350 psi) CO2, room temperature", "result": 4, "unit": "h"}]}
{"smiles": "CC[C@H]1OC(=O)[C@H](C)[C@@H](O[C@H]2C[C@@](C)(OC)[C@@H](O)[C@H](C)O2)[C@H](C)[C@@H](O[C@@H]2O[C@H](C)C[C@H](N(C)C)[C@H]2O)[C@](C)(OC)C[C@@H](C)C(=O)[C@H](C)[C@@H](O)[C@]1(C)O", "note": "[Clarithromycin form I, 6-O-methylerythro-mycin A]", "values": [{"measurement": "time for transformation to form II", "setting": "[1]; pressurization under 350 psi CO2", "result": "within just several minutes"}]}
{"smiles": "Cc1c(OCC(F)(F)F)ccnc1C[S+]([O-])c1nc2ccccc2[nH]1", "note": "(stereo not drawn) [Lansoprazole ethanol hydrate, Lansoprazole]", "values": [{"measurement": "transformation of ethanol hydrate to solvent-free form", "setting": "[1]; 500 psi CO2, room temperature", "result": "transformation to the more thermodynamically stable solvent-free form begins"}, {"measurement": "chemical stability of the solvate", "setting": "[2]", "result": "prone to decomposition"}]}
{"smiles": "CO[C@@H]1[C@@H](OC(N)=O)[C@@H](O)[C@H](Oc2ccc3c(O)c(NC(=O)c4ccc(O)c(CC=C(C)C)c4)c(=O)oc3c2C)OC1(C)C", "note": "[novobiocin amorphous phase, novobiocin]", "values": [{"measurement": "absorption upon oral administration", "setting": "[3]", "result": "readily absorbed"}]}
{"smiles": "CO[C@@H]1[C@@H](OC(N)=O)[C@@H](O)[C@H](Oc2ccc3c(O)c(NC(=O)c4ccc(O)c(CC=C(C)C)c4)c(=O)oc3c2C)OC1(C)C", "note": "[novobiocin crystalline form, novobiocin]", "values": [{"measurement": "absorption upon oral administration", "setting": "[3]", "result": "poorly absorbed"}]}
